ChEMBL document CHEMBL1129323, “Comparative molecular moment analysis (CoMMA): 3D-QSAR without molecular superposition” (J Med Chem, 1996)

Tests used:
[1] = target: T1, Sex hormone-binding globulin (Homo sapiens) (UniProt P04278)
T1 sequence (whole entry): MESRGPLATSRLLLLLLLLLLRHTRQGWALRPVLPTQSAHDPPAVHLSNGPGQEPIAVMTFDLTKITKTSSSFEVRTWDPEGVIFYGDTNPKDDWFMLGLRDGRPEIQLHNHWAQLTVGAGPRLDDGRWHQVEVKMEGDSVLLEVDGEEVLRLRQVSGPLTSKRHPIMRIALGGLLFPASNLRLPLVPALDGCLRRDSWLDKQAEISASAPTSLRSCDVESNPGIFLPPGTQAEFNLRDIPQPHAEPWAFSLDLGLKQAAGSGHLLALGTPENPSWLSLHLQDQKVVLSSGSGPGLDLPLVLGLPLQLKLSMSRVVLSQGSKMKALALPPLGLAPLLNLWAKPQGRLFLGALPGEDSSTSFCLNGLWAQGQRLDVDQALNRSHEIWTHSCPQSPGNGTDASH
Description: Binding affinity towards testosterone binding globulin is expressed as log(1/k).

[2] = target: T2, Corticosteroid-binding globulin (Homo sapiens) (UniProt P08185)
T2 sequence (whole entry): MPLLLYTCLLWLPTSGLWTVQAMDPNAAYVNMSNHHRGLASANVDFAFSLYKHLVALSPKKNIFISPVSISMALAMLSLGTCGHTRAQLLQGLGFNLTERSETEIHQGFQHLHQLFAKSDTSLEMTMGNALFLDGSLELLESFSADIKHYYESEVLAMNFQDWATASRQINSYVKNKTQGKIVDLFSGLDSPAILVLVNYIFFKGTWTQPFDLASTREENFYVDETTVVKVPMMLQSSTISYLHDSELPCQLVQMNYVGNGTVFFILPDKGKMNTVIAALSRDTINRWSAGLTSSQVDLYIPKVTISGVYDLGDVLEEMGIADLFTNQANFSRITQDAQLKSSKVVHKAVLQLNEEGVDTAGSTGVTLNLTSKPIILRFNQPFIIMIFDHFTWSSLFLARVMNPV
Description: Binding affinity for corticosteroid binding globulin is expressed as log(1/k)

[3] = Hammett constant was evaluated; format: ADME

`CC(=O)[C@H]1CC[C@H]2[C@@H]3CC=C4C[C@@H](O)CC[C@]4(C)[C@H]3CC[C@]12C` gave a Log 1/K [1] of 7.15 and a Log 1/K [2] of 5.25.

Work on `O=C(O)c1cccc(O)c1` [3-HYDROXYBENZOIC ACID] yielded a Hammett constant [3] of 0.12.

`O=C(O)c1ccc(F)cc1` showed a Hammett constant [3] of 0.06.

For `O=C(O)c1cccc(F)c1`, the Hammett constant [3] was 0.34.

`CC(=O)[C@@]1(O)[C@H](O)C[C@H]2[C@@H]3CCC4=CC(=O)CC[C@]4(C)[C@H]3CC[C@@]21C` showed a Log 1/K [2] of 6.25.

Work on `Nc1cccc(C(=O)O)c1` [3-AMINOBENZOIC ACID] yielded a Hammett constant [3] of -0.16.

Work on `CC(=O)[C@H]1CC[C@H]2[C@@H]3CCC4=CC(=O)CC[C@]4(C)[C@H]3CC[C@]12C` yielded a Log 1/K [1] of 6.94 and a Log 1/K [2] of 7.38.

`O=C(O)c1ccc(CCl)cc1` showed a Hammett constant [3] of 0.12.

`C[C@]12CCC(=O)C=C1CC[C@@H]1[C@@H]2C(=O)C[C@@]2(C)[C@H]1CC[C@]2(O)C(=O)CO` gave a Log 1/K [1] of 6.43 and a Log 1/K [2] of 6.89.

`O=C(O)c1cccc(SC(F)(F)F)c1` gave a Hammett constant [3] of 0.4.

With `Cc1cccc(C(=O)O)c1` the Hammett constant [3] was -0.07.

With `O=C(O)c1ccc(I)cc1` the Hammett constant [3] was 0.18.

In the case of `O=C(O)c1cccc(OC(F)(F)F)c1`, the Hammett constant [3] is reported as 0.38.

With `CC(=O)[C@H]1CC[C@H]2[C@@H]3CCC4=CC(=O)CC[C@]4(C)[C@H]3C(=O)C[C@]12C` the Log 1/K [2] was 6.78.

`O=C(O)c1ccc(OC(F)(F)F)cc1` gave a Hammett constant [3] of 0.35.

`O=C(O)c1cccc(CCl)c1` showed a Hammett constant [3] of 0.11.

With `O=C(O)c1ccc(O)cc1` [PARABEN] the Hammett constant [3] was -0.37.

`C[C@]12C[C@H](O)[C@H]3[C@@H](CCC4=CC(=O)CC[C@@]43C)[C@@H]1CC[C@@H]2C(=O)CO` showed a Log 1/K [1] of 6.34 and a Log 1/K [2] of 7.88.

`C[C@]12CCC(=O)C=C1CC[C@@H]1[C@@H]2[C@@H](O)C[C@]2(C=O)[C@@H](C(=O)CO)CC[C@@H]12` gave a Log 1/K [1] of 5.32 and a Log 1/K [2] of 6.28.

With `O=C(O)c1cccc(CBr)c1` the Hammett constant [3] was 0.12.

Work on `O=C(O)c1ccc(C(F)(F)C(F)(F)F)cc1` yielded a Hammett constant [3] of 0.52.

In the case of `CC(=O)[C@H]1CC[C@H]2[C@@H]3CCC4=CC(=O)CC[C@@H]4[C@H]3CC[C@]12C`, the Log 1/K [2] is reported as 6.82.

Compound `O=C(O)c1ccc(S)cc1` has a Hammett constant [3] of 0.15.

With `O=C(O)c1ccc(CBr)cc1` the Hammett constant [3] was 0.14.

In the case of `CCc1ccc(C(=O)O)cc1`, the Hammett constant [3] is reported as -0.15.

Work on `O=C(O)c1ccc(S(=O)(=O)C(F)(F)F)cc1` yielded a Hammett constant [3] of 0.93.

Work on `O=C(O)c1ccc(S(=O)(=O)F)cc1` yielded a Hammett constant [3] of 0.91.

Compound `C[C@]12CCC(=O)C=C1CC[C@@H]1[C@@H]2CC[C@@]2(C)[C@H]1CC[C@]2(O)C(=O)CO` has a Log 1/K [1] of 7.2 and a Log 1/K [2] of 7.88.

Work on `CS(=O)(=O)c1cccc(C(=O)O)c1` yielded a Hammett constant [3] of 0.6.

In the case of `CC(C)(C)c1cccc(C(=O)O)c1`, the Hammett constant [3] is reported as -0.1.

Compound `CSc1ccc(C(=O)O)cc1` has a Hammett constant [3] of 0.

With `C[C@]12CC[C@@H]3c4ccc(O)cc4CC[C@H]3[C@@H]1C[C@@H](O)[C@@H]2O` the Log 1/K [1] was 6.63 and the Log 1/K [2] was 5.

Compound `CC(C)(C)c1ccc(C(=O)O)cc1` has a Hammett constant [3] of -0.2.

For `N#Cc1ccc(C(=O)O)cc1`, the Hammett constant [3] was 0.66.

For `C[C@]12CC[C@H](O)C[C@@H]1CC[C@@H]1[C@@H]2CC[C@]2(C)[C@@H](O)CC[C@@H]12`, the Log 1/K [1] was 9.11 and the Log 1/K [2] was 5.

Work on `O=C(O)c1cccc(I)c1` yielded a Hammett constant [3] of 0.35.

For `Nc1ccc(C(=O)O)cc1` [AMINOBENZOIC ACID], the Hammett constant [3] was -0.66.

With `COc1cccc(C(=O)O)c1` the Hammett constant [3] was 0.12.

Compound `O=C(O)c1cccc(CI)c1` has a Hammett constant [3] of 0.1.

Work on `CC(=O)OCC(=O)[C@@]1(O)CCC2C3CCC4=CC(=O)CC[C@]4(C)C3C(O)C[C@@]21C` (some centres not stated) yielded a Log 1/K [2] of 7.55.

Work on `C[C@]12C[C@@H](O)[C@H]3[C@@H](CCC4=CC(=O)CC[C@@]43C)[C@@H]1CC[C@@H]2C(=O)CO` yielded a Log 1/K [2] of 7.2.

With `O=C(O)c1cccc(S)c1` the Hammett constant [3] was 0.25.

`O=C(O)c1ccccc1` [BENZOIC ACID] showed a Hammett constant [3] of 0.

`CCc1cccc(C(=O)O)c1` gave a Hammett constant [3] of -0.07.

`C[C@]12CC[C@H]3[C@@H](CCC4=CC(=O)CC[C@@H]43)[C@@H]1CC[C@@H]2O` showed a Log 1/K [2] of 6.14.

With `O=C(O)c1cccc(Cl)c1` the Hammett constant [3] was 0.37.

`O=C(O)c1ccc(CI)cc1` showed a Hammett constant [3] of 0.11.

With `O=C(O)c1ccc(Br)cc1` the Hammett constant [3] was 0.23.

In the case of `O=C(O)c1cccc([N+](=O)[O-])c1`, the Hammett constant [3] is reported as 0.71.

`C[C@@H]1C[C@@]2(C)C(=CC1=O)CC[C@H]1[C@@H]3CC[C@](O)(C(=O)CO)[C@@]3(C)C[C@H](O)[C@@]12F` gave a Log 1/K [2] of 5.8.

For `CC(=O)[C@@]1(O)CC[C@H]2[C@@H]3CCC4=CC(=O)CC[C@]4(C)[C@H]3CC[C@@]21C`, the Log 1/K [1] was 7 and the Log 1/K [2] was 7.74.

With `C[C@]12CCC(=O)C=C1CC[C@@H]1[C@@H]2CC[C@]2(C)C(=O)CC[C@@H]12` the Log 1/K [1] was 7.46 and the Log 1/K [2] was 5.76.

With `CC(=O)[C@@]1(O)CC[C@H]2[C@@H]3CC=C4C[C@@H](O)CC[C@]4(C)[C@H]3CC[C@@]21C` the Log 1/K [1] was 6.36 and the Log 1/K [2] was 5.

In the case of `O=C(O)c1cccc(C(F)(F)C(F)(F)F)c1`, the Hammett constant [3] is reported as 0.47.

`N#Cc1cccc(C(=O)O)c1` gave a Hammett constant [3] of 0.56.

Work on `Cc1ccc(C(=O)O)cc1` [4-METHYLBENZOIC ACID] yielded a Hammett constant [3] of -0.17.

In the case of `C[C@]12CC[C@H]3[C@@H](CCC4=CC(=O)CC[C@@]43C)[C@@H]1CC[C@@H]2C(=O)CO`, the Log 1/K [1] is reported as 7.38 and the Log 1/K [2] is reported as 7.65.

`C[C@]12C=CC(=O)C=C1CC[C@@H]1[C@@H]2[C@@H](O)C[C@@]2(C)[C@H]1CC[C@]2(O)C(=O)CO` showed a Log 1/K [2] of 7.51.

For `O=C(O)c1ccc(SC(F)(F)F)cc1`, the Hammett constant [3] was 0.5.

Work on `O=C(O)c1cccc(Br)c1` yielded a Hammett constant [3] of 0.39.

For `O=C(O)c1ccc([N+](=O)[O-])cc1` [4-NITROBENZOIC ACID], the Hammett constant [3] was 0.78.

In the case of `CS(=O)(=O)c1ccc(C(=O)O)cc1`, the Hammett constant [3] is reported as 0.72.

With `CC(=O)[C@@]1(C)CCC2C3CCC4=CC(=O)CC[C@]4(C)C3CC[C@@]21C` (some centres not stated) the Log 1/K [2] was 7.12.

With `O=C(O)c1cccc(C(F)(F)F)c1` the Hammett constant [3] was 0.43.

Work on `C[C@]12CC[C@H]3[C@@H](CCC4=CC(=O)CC[C@@]43C)[C@@H]1CC[C@@H]2O` yielded a Log 1/K [1] of 9.2 and a Log 1/K [2] of 6.72.

Work on `CSc1cccc(C(=O)O)c1` yielded a Hammett constant [3] of 0.15.

`O=C(O)c1cccc(S(=O)(=O)F)c1` gave a Hammett constant [3] of 0.8.

Work on `O=C(O)c1ccc(C(F)(F)F)cc1` yielded a Hammett constant [3] of 0.54.

Work on `COc1ccc(C(=O)O)cc1` [p-ANISIC ACID] yielded a Hammett constant [3] of -0.27.

With `C[C@]12CC[C@H](O)CC1=CC[C@@H]1[C@@H]2CC[C@]2(C)C(=O)CC[C@@H]12` the Log 1/K [1] was 7.82 and the Log 1/K [2] was 5.

For `O=C(O)c1cccc(S(=O)(=O)C(F)(F)F)c1`, the Hammett constant [3] was 0.79.

Work on `C[C@]12CCC(=O)C=C1CC[C@@H]1[C@@H]2[C@@H](O)C[C@@]2(C)[C@H]1CC[C@]2(O)C(=O)CO` yielded a Log 1/K [1] of 6.2 and a Log 1/K [2] of 7.88.
